Assays:
[1] = test system: pSTAT5 and pERK in patient-derived AML cells; test: Cytokine-induced pSTAT5 and pERK in patient-derived AML cells; assay type: cell-based, human; settings: for pERK relative expression, FOLD / pSTAT5 relative expression, FOLD: fold over unstimulated; for pSTAT5 FOLD: relative expression vs Unstimulated
Procedure: All bone marrow or peripheral blood samples from patients with AML were collected after informed consent, in accordance with guidelines approved by the Human Research Ethics Committee of Alfred Health. Human AML cells were thawed, washed, and adjusted to 2 × 10^6 cells/mL in Iscove’s Modified Dulbecco’s Media (#12440053, Gibco, Grand Island NY, USA) supplemented with Glutamax 2 mM (Gibco) and 1% v/v Penicillin/Streptomycin (Gibco). […] For cytokine-mediated signalling assays, cells were incubated with vehicle or Dynole 34-2 for 1 h, and subsequently stimulated with either 25 ng/mL rhIL-3 (#200-03, Pepro Tech), 25 ng/mL rhGM-CSF (#300-03, Pepro Tech) or 125 ng/mL rhSCF (#300-07, Pepro Tech) at 37 °C for 20 min. Cells were washed twice using cold PBS 1× and flow cytometry analyses were done on single-cell suspensions using BD Pharmingen antibodies against human CD45 (#557748), IL-3R (CD123, #560087), GM-CSFR alpha chain (CD116, #554532) and BioLegend antibody against human KIT (A3C6E2). For assessing intracellular levels of pSTAT5 and phospho-ERK, flow cytometry analyses were performed in duplicate on patient-derived AML cells as described in the FACS analysis section. The MFI observed without stimulation was reported as 1.

[2] = Pharmacokinetic analysis of serum levels after a single intraperitoneal dose; assay type: in vivo; settings: ip, mouse, single intraperitoneal dose 30 mg/Kg
Procedure: All experiments were pre-approved by the University of Melbourne Animal Ethics Committee (Ethics ID: 0911153.1). […] Five different time points were chosen to measure drug level: 15, 30, 60 120 and 240 min after intraperitoneal injection of the recipients. At each time points, treated mice were killed by lethal injection of 0.01 mL/g of Lethobarb® (325 mg pentobarbitone sodium/mL). Following this, blood was collected via intra-cardiac puncture, blood was then allowed to clot at room temperature for 15 min, then centrifuged at 1500 × g for 6 min to separate out the cells and serum. The serum was collected, weighed, snap frozen in dry ice and stored at −80 °C.
Drug-free mouse serum was used as negative controls. Serum blanks, including calibration standard and quality control samples, were prepared by protein precipitation. Selectivity was evaluated by comparing chromatograms of six blank blood samples from six different sources to make sure there were no significant interfering peaks at retention time of analysis. The maximum serum concentration (Cmax) and the time to reach Cmax (Tmax) were directly obtained from the experimental data. The time needed for 50% reduction in the serum concentration (terminal half-life; T1/2) was calculated from the mean values (n = 5) using GraphPad Prism 8.

Structure (SMILES): CCCCCCCCNC(=O)C(C#N)=Cc1cn(CCCN(C)C)c2ccccc12 [Dynole 34-2, 2-Cyano-N-octyl-3-(1-(3-dimethylaminopropyl)-1H-indol-3-yl)-acrylamide]
- pERK relative expression, MFI ([1]; AML01-021): 1807 MFI
- pSTAT5 relative expression, MFI ([1]; AML01-021): 4941 MFI
- pStat5 (MFI) ([1]; AML01-021): 2538 MFI
- pERK relative expression, FOLD ([1]; AML01-021): 1.07 FOLD
- pSTAT5 relative expression, FOLD ([1]; AML01-021): 1.87 FOLD
- pSTAT5 FOLD ([1]; AML01-021): 1.02
- pERK relative expression, MFI ([1]; AML01-050): 10447 MFI
- pSTAT5 relative expression, MFI ([1]; AML01-050): 19500 MFI
- pStat5 (MFI) ([1]; AML01-050): 29884 MFI
- pERK relative expression, FOLD ([1]; AML01-050): 1.28 FOLD
- pSTAT5 relative expression, FOLD ([1]; AML01-050): 0.97 FOLD
- pSTAT5 FOLD ([1]; AML01-050): 0.84
- pERK relative expression, MFI ([1]; AML01-072): 2195 MFI
- pSTAT5 relative expression, MFI ([1]; AML01-072): 18325 MFI
- pStat5 (MFI) ([1]; AML01-072): 10160 MFI
- pERK relative expression, FOLD ([1]; AML01-072): 1.01 FOLD
- pSTAT5 relative expression, FOLD ([1]; AML01-072): 0.91 FOLD
- pSTAT5 FOLD ([1]; AML01-072): 0.88
- pERK relative expression, MFI ([1]; AML01-226): 1574 MFI
- pSTAT5 relative expression, MFI ([1]; AML01-226): 673 MFI
- pStat5 (MFI) ([1]; AML01-226): 511 MFI
- pERK relative expression, FOLD ([1]; AML01-226): 1.05 FOLD
- pSTAT5 relative expression, FOLD ([1]; AML01-226): 0.89 FOLD
- pSTAT5 FOLD ([1]; AML01-226): 1.01
- pERK relative expression, MFI ([1]; AML01-307): 2891 MFI
- pSTAT5 relative expression, MFI ([1]; AML01-307): 12933 MFI
- pStat5 (MFI) ([1]; AML01-307): 10786 MFI
- pERK relative expression, FOLD ([1]; AML01-307): 1.06 FOLD
- pSTAT5 relative expression, FOLD ([1]; AML01-307): 1.07 FOLD
- pSTAT5 FOLD ([1]; AML01-307): 1.08
- pERK relative expression, MFI ([1]; AML02-078): 5047 MFI
- pSTAT5 relative expression, MFI ([1]; AML02-078): 31582 MFI
- pStat5 (MFI) ([1]; AML02-078): 31914 MFI
- pERK relative expression, FOLD ([1]; AML02-078): 0.79 FOLD
- pSTAT5 relative expression, FOLD ([1]; AML02-078): 1.24 FOLD
- pSTAT5 FOLD ([1]; AML02-078): 1.05
- pERK relative expression, MFI ([1]; AML02-123): 4380 MFI
- pSTAT5 relative expression, MFI ([1]; AML02-123): 22757 MFI
- pStat5 (MFI) ([1]; AML02-123): 30741 MFI
- pERK relative expression, FOLD ([1]; AML02-123): 1.16 FOLD
- pSTAT5 relative expression, FOLD ([1]; AML02-123): 1.15 FOLD
- pSTAT5 FOLD ([1]; AML02-123): 1.00
- pERK relative expression, MFI ([1]; AML02-232): 1644 MFI
- pSTAT5 relative expression, MFI ([1]; AML02-232): 1406 MFI
- pStat5 (MFI) ([1]; AML02-232): 688 MFI
- pERK relative expression, FOLD ([1]; AML02-232): 1.04 FOLD
- pSTAT5 relative expression, FOLD ([1]; AML02-232): 1.59 FOLD
- pSTAT5 FOLD ([1]; AML02-232): 0.73
- pERK relative expression, MFI ([1]; AML03-330): 10652 MFI
- pSTAT5 relative expression, MFI ([1]; AML03-330): 5650 MFI
- pStat5 (MFI) ([1]; AML03-330): 6696 MFI
- pERK relative expression, FOLD ([1]; AML03-330): 0.97 FOLD
- pSTAT5 relative expression, FOLD ([1]; AML03-330): 1.04 FOLD
- pSTAT5 FOLD ([1]; AML03-330): 1.02
- pERK relative expression, MFI ([1]; AML03-331): 1814 MFI
- pSTAT5 relative expression, MFI ([1]; AML03-331): 1899 MFI
- pStat5 (MFI) ([1]; AML03-331): 2344 MFI
- pERK relative expression, FOLD ([1]; AML03-331): 0.94 FOLD
- pSTAT5 relative expression, FOLD ([1]; AML03-331): 1.03 FOLD
- pSTAT5 FOLD ([1]; AML03-331): 1.02
- pERK relative expression, MFI ([1]; AML4): 1091 MFI
- pSTAT5 relative expression, MFI ([1]; AML4): 3442 MFI
- pStat5 (MFI) ([1]; AML4): 3071 MFI
- pERK relative expression, FOLD ([1]; AML4): 1.13 FOLD
- pSTAT5 relative expression, FOLD ([1]; AML4): 0.95 FOLD
- pSTAT5 FOLD ([1]; AML4): 0.85
- pERK relative expression, MFI ([1]; AML16): 2510 MFI
- pSTAT5 relative expression, MFI ([1]; AML16): 17405 MFI
- pStat5 (MFI) ([1]; AML16): 13885 MFI
- pERK relative expression, FOLD ([1]; AML16): 0.44 FOLD
- pSTAT5 relative expression, FOLD ([1]; AML16): 0.88 FOLD
- pSTAT5 FOLD ([1]; AML16): 0.70
- pERK relative expression, MFI ([1]; AML17): 822 MFI
- pSTAT5 relative expression, MFI ([1]; AML17): 3831 MFI
- pStat5 (MFI) ([1]; AML17): 3091 MFI
- pERK relative expression, FOLD ([1]; AML17): 0.99 FOLD
- pSTAT5 relative expression, FOLD ([1]; AML17): 1.02 FOLD
- pSTAT5 FOLD ([1]; AML17): 1.01
- pERK relative expression, MFI ([1]; AML18): 985 MFI
- pSTAT5 relative expression, MFI ([1]; AML18): 4716 MFI
- pStat5 (MFI) ([1]; AML18): 4188 MFI
- pERK relative expression, FOLD ([1]; AML18): 0.99 FOLD
- pSTAT5 relative expression, FOLD ([1]; AML18): 0.86 FOLD
- pSTAT5 FOLD ([1]; AML18): 1.02
- pERK relative expression, MFI ([1]; AML34): 2315 MFI
- pStat5 (MFI) ([1]; AML34): 10444 MFI
- pERK relative expression, FOLD ([1]; AML34): 0.84 FOLD
- pSTAT5 FOLD ([1]; AML34): 1.43
- pERK relative expression, MFI ([1]; AML54): 2163 MFI
- pStat5 (MFI) ([1]; AML54): 4818 MFI
- pERK relative expression, FOLD ([1]; AML54): 0.94 FOLD
- pSTAT5 FOLD ([1]; AML54): 0.89
- downstream signalling (pSTAT5) in human AML cells ([1]; result in words): blocked downstream signalling
- Cmax ([2]; read-out: average maximum concentration (Cmax) in serum): > 4 µM
- half-life ([2]; read-out: estimated half-life in serum): 30 min
